The pIC50 is the IC50 on a negative log10 scale, so that one unit is a factor of ten. Read a high pIC50 as a low IC50.

Data on 22 compounds can be found in patent US9999619B2, “Piperidin-4-yl azetidine derivatives as JAK1 inhibitors” (Incyte Corporation, priority 2010, dated 2018).

What all share (assay type): biochemical
Experiment [1] deals with human JAK1 (a.a. 837-1142) (Homo sapiens, UniProt P23458). Put plainly: In vitro JAK kinase assay (HTRF, phosphorylation of a biotinylated peptide), JAK1. To be noted: measured at 1 mM ATP. Put shortly:
(§1)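 N-terminal His-tagged catalytic domains, baculovirus-expressed in insect cells, phosphorylated a biotinylated peptide for 1 hr at room temperature. EDTA stop was followed by SA-APC and Eu-Py20 antibody for 40 minutes, with phosphopeptide read by HTRF.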
A general note: In TR-FRET formats the signal depends on donor and acceptor labels being close together.

Experiment [2] addresses human JAK1 (a.a. 837-1142). The description is as above. The settings on record: ratio of JAK2 IC50 to JAK1 IC50, measured at 1 mM ATP. Put shortly: as §1
In the next experiment the target is Jak2 (a.a. 828-1132) (Homo sapiens (Human), UniProt O60674). As to the kind of experiment: In vitro JAK kinase assay (HTRF, phosphorylation of a biotinylated peptide), JAK2. The settings on record: measured at 1 mM ATP. The method in brief:
as §1

pIC50: −log10 of the molar value.

Jak2 (a.a. 828-1132), sequence (O60674 828-1132): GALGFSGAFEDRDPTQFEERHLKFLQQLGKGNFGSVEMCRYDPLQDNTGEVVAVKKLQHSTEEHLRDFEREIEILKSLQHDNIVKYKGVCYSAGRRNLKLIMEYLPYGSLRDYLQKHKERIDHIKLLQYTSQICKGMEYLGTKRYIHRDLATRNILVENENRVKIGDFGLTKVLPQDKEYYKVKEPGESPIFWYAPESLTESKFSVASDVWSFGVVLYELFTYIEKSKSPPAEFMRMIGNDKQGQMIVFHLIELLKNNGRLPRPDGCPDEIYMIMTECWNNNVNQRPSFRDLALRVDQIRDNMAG

Take `N#CCC1(n2cc(-c3ncnc4[nH]ccc34)cn2)CN(C2CCN(Cc3cc(Br)nc(Br)c3)CC2)C1` [Example 225, {1-{1-[(2,6-dibromopyridin-4-yl)methyl]piperidin-4-yl}-3-[4-(7H-pyrrolo[2,3-d]pyrimidin-4-yl)-1H-pyrazol-1-yl]azetidin-3-yl}acetonitrile]: the pIC50 was no less than 8.30 in experiment [1] and 7.30 to 8.00 against Jak2 (a.a. 828-1132). For the same compound, in experiment [2], the “IC50 Ratio JAK2/JAK1” value is on record as 3.8.
Taken in the same sequence, the figures for `N#CCC1(n2cc(-c3ncnc4[nH]ccc34)cn2)CN(C2CCN(Cc3ccnc(Br)c3)CC2)C1` [Example 226, {1-{1-[(2-bromopyridin-4-yl)methyl]piperidin-4-yl}-3-[4-(7H-pyrrolo[2,3-d]pyrimidin-4-yl)-1H-pyrazol-1-yl]azetidin-3-yl}acetonitrile] were 7.70 to 8.30, 7.30 to 8.00 and 1.9.
Taken in the same sequence, the figures for `N#CCC1(n2cc(-c3ncnc4[nH]ccc34)cn2)CN(C2CCN(Cc3c(F)cccc3Cl)CC2)C1` [Example 227, {1-[1-(2-chloro-6-fluorobenzyl)piperidin-4-yl]-3-[4-(7H-pyrrolo[2,3-d]pyrimidin-4-yl)-1H-pyrazol-1-yl]azetidin-3-yl}acetonitrile] were no less than 8.30, no less than 8.00 and 7.9.
The like results for `N#CCC1(n2cc(-c3ncnc4[nH]ccc34)cn2)CN(C2CCN(Cc3c(F)ccc(Cl)c3F)CC2)C1` [Example 228, {1-[1-(3-chloro-2,6-difluorobenzyl)piperidin-4-yl]-3-[4-(7H-pyrrolo[2,3-d]pyrimidin-4-yl)-1H-pyrazol-1-yl]azetidin-3-yl}acetonitrile] were, in that order, no less than 8.30, no less than 8.00 and 3.9.
For the compound `N#CCC1(n2cc(-c3ncnc4[nH]ccc34)cn2)CN(C2CCN(Cc3ccc(C#N)c(F)c3)CC2)C1` [Example 229, 4-[(4-{3-(cyanomethyl)-3-[4-(7H-pyrrolo[2,3-d]pyrimidin-4-yl)-1H-pyrazol-1-yl]azetidin-1-yl}piperidin-1-yl)methyl]-2-fluorobenzonitrile], the negative logarithm of the IC50 (pIC50) in experiment [1] is 7.70 to 8.30; on Jak2 (a.a. 828-1132), 7.00 to 7.30. Further, in experiment [2], the “IC50 Ratio JAK2/JAK1” value was found to be 6.4.
Taken in the same sequence, the figures for `Cc1onc(-c2ccccc2)c1CN1CCC(N2CC(CC#N)(n3cc(-c4ncnc5[nH]ccc45)cn3)C2)CC1` [Example 230, {1-{1-[(5-methyl-3-phenylisoxazol-4-yl)methyl]piperidin-4-yl}-3-[4-(7H-pyrrolo[2,3-d]pyrimidin-4-yl)-1H-pyrazol-1-yl]azetidin-3-yl}acetonitrile] were 7.70 to 8.30, less than 7.00 and 9.3.
Consider `N#CCC1(n2cc(-c3ncnc4[nH]ccc34)cn2)CN(C2CCN(Cc3ccnc(C(F)(F)F)c3F)CC2)C1` [Example 231, {1-(1-{[3-fluoro-2-(trifluoromethyl)pyridin-4-yl]methyl}piperidin-4-yl)-3-[4-(7H-pyrrolo[2,3-d]pyrimidin-4-yl)-1H-pyrazol-1-yl]azetidin-3-yl}acetonitrile], for which the pIC50 was 7.70 to 8.30 in experiment [1] and 7.00 to 7.30 at Jak2 (a.a. 828-1132). In addition, in experiment [2], the “IC50 Ratio JAK2/JAK1” value came to 5.1.
The like results for `N#CCC1(n2cc(-c3ncnc4[nH]ccc34)cn2)CN(C2CCN(Cc3cc4ccccc4o3)CC2)C1` [Example 232, {1-[1-(1-benzofuran-2-ylmethyl)piperidin-4-yl]-3-[4-(7H-pyrrolo[2,3-d]pyrimidin-4-yl)-1H-pyrazol-1-yl]azetidin-3-yl}acetonitrile] were, in that order, 7.70 to 8.30, no less than 8.00 and 0.7.
The like results for `N#CCC1(n2cc(-c3ncnc4[nH]ccc34)cn2)CN(C2CCN(Cc3cccc(Oc4ccccc4)c3)CC2)C1` [Example 233, {1-[1-(3-phenoxybenzyl)piperidin-4-yl]-3-[4-(7H-pyrrolo[2,3-d]pyrimidin-4-yl)-1H-pyrazol-1-yl]azetidin-3-yl}acetonitrile] were, in that order, 7.52 to 7.70, 7.00 to 7.30 and 2.2.
As for `N#CCC1(n2cc(-c3ncnc4[nH]ccc34)cn2)CN(C2CCN(Cc3ccc4c(c3)OCCO4)CC2)C1` [Example 234, {1-[1-(2,3-dihydro-1,4-benzodioxin-6-ylmethyl)piperidin-4-yl]-3-[4-(7H-pyrrolo[2,3-d]pyrimidin-4-yl)-1H-pyrazol-1-yl]azetidin-3-yl}acetonitrile], the values for the pIC50 (in experiment [1]; against Jak2 (a.a. 828-1132)) were no less than 8.30 and 7.30 to 8.00, respectively. Also, in experiment [2], the “IC50 Ratio JAK2/JAK1” value turned out to be 4.2.
`CC(C)(C)C(=O)Nc1ncccc1CN1CCC(N2CC(CC#N)(n3cc(-c4ncnc5[nH]ccc45)cn3)C2)CC1` [Example 235]: the pIC50 in experiment [1] is 7.70 to 8.30; at Jak2 (a.a. 828-1132), 7.30 to 8.00. Moreover, the “IC50 Ratio JAK2/JAK1” value in experiment [2] came out at 2.5.
With `N#CCC1(n2cc(-c3ncnc4[nH]ccc34)cn2)CN(C2CCN(Cc3c(C(F)(F)F)ccc(Cl)c3F)CC2)C1` [Example 236, {1-{1-[3-chloro-2-fluoro-6-(trifluoromethyl)benzyl]piperidin-4-yl}-3-[4-(7H-pyrrolo[2,3-d]pyrimidin-4-yl)-1H-pyrazol-1-yl]azetidin-3-yl}acetonitrile], the pIC50 in experiment [1] was no less than 8.30; against Jak2 (a.a. 828-1132), no less than 8.00. The “IC50 Ratio JAK2/JAK1” value in experiment [2] is 5.5.
Regarding `N#CCC1(n2cc(-c3ncnc4[nH]ccc34)cn2)CN(C2CCN(Cc3c(Cl)cncc3Cl)CC2)C1` [Example 237, {1-{1-[(3,5-dichloropyridin-4-yl)methyl]piperidin-4-yl}-3-[4-(7H-pyrrolo[2,3-d]pyrimidin-4-yl)-1H-pyrazol-1-yl]azetidin-3-yl}acetonitrile], the pIC50 in experiment [1] was 7.70 to 8.30; against Jak2 (a.a. 828-1132) it was 7.30 to 8.00. Moreover, the “IC50 Ratio JAK2/JAK1” value in experiment [2] is 2.3.
Taken in the same sequence, the figures for `COc1ccc2nc(Cl)c(CN3CCC(N4CC(CC#N)(n5cc(-c6ncnc7[nH]ccc67)cn5)C4)CC3)cc2c1` [Example 238, {1-{1-[(2-chloro-6-methoxyquinolin-3-yl)methyl]piperidin-4-yl}-3-[4-(7H-pyrrolo[2,3-d]pyrimidin-4-yl)-1H-pyrazol-1-yl]azetidin-3-yl}acetonitrile] were no less than 8.30, 7.30 to 8.00 and 6.8.
Taken in the same sequence, the figures for `COc1ccc(CN2CCC(N3CC(CC#N)(n4cc(-c5ncnc6[nH]ccc56)cn4)C3)CC2)c(Cl)c1OC` [Example 239, {1-[1-(2-chloro-3,4-dimethoxybenzyl)piperidin-4-yl]-3-[4-(7H-pyrrolo[2,3-d]pyrimidin-4-yl)-1H-pyrazol-1-yl]azetidin-3-yl}acetonitrile] were 7.70 to 8.30, 7.30 to 8.00 and 2.3.
Taken in the same sequence, the figures for `N#CCC1(n2cc(-c3ncnc4[nH]ccc34)cn2)CN(C2CC3CCC(C2)N3Cc2c(F)ccc(F)c2Cl)C1` (stereo not drawn) [Example 241, {1-[8-(2-Chloro-3,6-difluorobenzyl)-8-azabicyclo[3.2.1]oct-3-yl]-3-[4-(7H-pyrrolo[2,3-d]pyrimidin-4-yl)-1H-pyrazol-1-yl]azetidin-3-yl}acetonitrile] were no less than 8.30, no less than 8.00 and 3.8.
For the compound `Cn1nccc1S(=O)(=O)N1CCC(N2CC(CC#N)(n3cc(-c4ncnc5[nH]ccc45)cn3)C2)CC1` [Example 246, {1-{1-[(1-Methyl-1H-pyrazol-5-yl)sulfonyl]piperidin-4-yl}-3-[4-(7H-pyrrolo[2,3-d]pyrimidin-4-yl)-1H-pyrazol-1-yl]azetidin-3-yl}acetonitrile], the pIC50 in experiment [1] was no less than 8.30; on Jak2 (a.a. 828-1132), 7.30 to 8.00. Further, the “IC50 Ratio JAK2/JAK1” value in experiment [2] was 7.5.
In the case of `N#CCC1(n2cc(-c3ncnc4[nH]ccc34)cn2)CN(C2CCN(S(=O)(=O)c3ccccc3C#N)CC2)C1` [Example 247, 2-[(4-{3-(cyanomethyl)-3-[4-(7H-pyrrolo[2,3-d]pyrimidin-4-yl)-1H-pyrazol-1-yl]azetidin-1-yl}piperidin-1-yl)sulfonyl]benzonitrile], the pIC50 is no less than 8.30 in experiment [1] and no less than 8.00 against Jak2 (a.a. 828-1132). For the same compound, the “IC50 Ratio JAK2/JAK1” value in experiment [2] is listed as 5.1.
In the case of `N#CCC1(n2cc(-c3ncnc4[nH]ccc34)cn2)CN(C2CCN(S(=O)(=O)c3cccc(C#N)c3)CC2)C1` [Example 248, 3-[(4-{3-(cyanomethyl)-3-[4-(7H-pyrrolo[2,3-d]pyrimidin-4-yl)-1H-pyrazol-1-yl]azetidin-1-yl}piperidin-1-yl)sulfonyl]benzonitrile], the pIC50 in experiment [1] was 7.52 to 7.70; against Jak2 (a.a. 828-1132), less than 7.00. For the same compound, in experiment [2], the “IC50 Ratio JAK2/JAK1” value turned out to be 5.2.
As for `N#CCC1(n2cc(-c3ncnc4[nH]ccc34)cn2)CN(C2CCN(S(=O)(=O)c3ccc(C#N)cc3)CC2)C1` [Example 249, 4-[(4-{3-(cyanomethyl)-3-[4-(7H-pyrrolo[2,3-d]pyrimidin-4-yl)-1H-pyrazol-1-yl]azetidin-1-yl}piperidin-1-yl)sulfonyl]benzonitrile], the negative-log IC50 (pIC50) is 7.70 to 8.30 in experiment [1] and 7.30 to 8.00 against Jak2 (a.a. 828-1132). The “IC50 Ratio JAK2/JAK1” value in experiment [2] is given as 2.1.
`CN(C)c1ccc(S(=O)(=O)N2CCC(N3CC(CC#N)(n4cc(-c5ncnc6[nH]ccc56)cn4)C3)CC2)cc1C#N` [Example 250, 5-[(4-{3-(cyanomethyl)-3-[4-(7H-pyrrolo[2,3-d]pyrimidin-4-yl)-1H-pyrazol-1-yl]azetidin-1-yl}piperidin-1-yl)sulfonyl]-2-(dimethylamino)benzonitrile]: the pIC50 was no less than 8.30 in experiment [1] and 7.30 to 8.00 against Jak2 (a.a. 828-1132). The “IC50 Ratio JAK2/JAK1” value in experiment [2] is reported as 4.7.
Taken in the same sequence, the figures for `Cn1ccc(S(=O)(=O)N2CCC(N3CC(CC#N)(n4cc(-c5ncnc6[nH]ccc56)cn4)C3)CC2)n1` [Example 251, {1-{1-[(1-methyl-1H-pyrazol-3-yl)sulfonyl]piperidin-4-yl}-3-[4-(7H-pyrrolo[2,3-d]pyrimidin-4-yl)-1H-pyrazol-1-yl]azetidin-3-yl}acetonitrile] were no less than 8.30, no less than 8.00 and 4.9.
